Data set [1] in a line: Pharmacokinetics: plasma concentration after oral administration to rats. In kind it is in vivo, rat. Conditions: 10 mg/kg; for AUC(0-inf) / Cmax: Crl:CD(SD) (Sprague-Dawley), male rat (Crl: CD (SD)), plasma. How it is done: The required amounts of compounds were weighed, and drug suspensions were prepared in 0.5% hydroxypropyl methylcellulose. The number of rats in each group was two, and each drug suspension was administered orally to each male rat (Crl: CD (SD)) using an oral sonde (the dose of the compound was 10 mg/kg). At each blood collection point (0.5, 1, 2, 4, 8, and 24 hours after administration), blood was collected from the jugular vein using a syringe and a needle (the anticoagulant was heparin sodium). The collected blood was centrifuged (13000 rpm, 2 min, 4° C.) to prepare plasma, followed by deproteinization. Thereafter, the concentration of the compound in the plasma was measured by LC/MS/MS (ICMS-8040 (Shimadzu Corporation) or API 4000 (AB Sciex), IC: 30-A and 20-A series (Shimadzu Corporation) or Waters Acquity (Waters Corporation)).

Data set [2] deals with ND3 neuronal cell line. In words: Measurement of nerve growth stimulation effect (neurite bearing assay, neurite length assay, number of cells). Type of data set: cell-based. Particulars: for viability at 1 µM / viability at 3 µM / viability at 5 µM / viability at 10 µM / viability at 30 µM / viability at 100 µM: 6 hours, relative cell number, DMSO well = 1. A digest of the protocol:
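ND3 cells were exposed 6 h to compounds in DMEM with 0.1% BSA (0.1% DMSO final), in duplicate. Neurite-bearing fraction (neurite longer than cell-body diameter) and neurite length per cell were scored by imaging and expressed relative to compound 24 maximum. Cell number was relative to DMSO wells; data with relative count <0.5 were excluded.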

Data set [3] concerns streptozotocin (STZ)-induced DM model SD rats. As to the kind of experiment: Evaluation of drug efficacy in diabetes mellitus (DM) rat model (bladder function, residual urine volume). In kind it is in vivo. Conditions: oral twice a day for 4 weeks. How it is done: To examine the effect of the compound in a diabetes mellitus model, bladder function was analyzed by […] based on the method of Saitoh et al. (European Journal of Pharmacology 501 (2004) 143-149).
A streptozotocin (STZ) solution obtained by dissolving STZ in a citrate buffer solution (0.1 M citric acid, pH of 4.2) to a concentration of 32.5 mg/mL was prepared, and administered intraperitoneally (65 mg/kg) to SD rats to induce DM models. The same procedure was performed on sham rats except that a citrate buffer solution was used in place of the STZ solution.
On the day after the model production and 4 weeks later, a blood sample was taken from the tail vein with the rats awake to measure the blood glucose level. […] Individuals with a blood glucose level of 300 mg/dL or more on the day after the production of the model and 4 weeks later were determined to be established DM models and used in subsequent operations. […]
A pressure transducer (DX-360, Nihon Kohden Kogyo Co., Ltd.) and an infusion pump (TE-331S, Terumo Corporation) were connected via a three-way valve to the other end of a catheter inserted into the bladder. […] The volume of urination was automatically measured using an electronic balance (GX-200, A&D Company Limited) set directly under the holding cage, and recorded continuously on a computer using a PowerLab (sampling rate: 20/sec). […]

Each structure is given as a SMILES string. Some results are limits rather than exact numbers.

Regarding `COCCCCCCCCCCCCCCCC1=C(C)C(=O)CCC1(C)C` [Compound 24, 3-(15-methoxypentadecyl)-2,4,4-trimethylcyclohex-2-en-1-one], in data set [1], the total exposure AUC(0-inf) was determined as 5.9 µM·h and the peak level (Cmax) was 2200 nM. Moreover, in data set [1] (rat), the “improvement in area under the curve (AUC) as compared to the compound 4” value is ≥ 1900 times and the “improvement in maximum blood concentration Cmax as compared to the compound 4” value is reported as ≥ 1100 times. In data set [2], the viability at 1 µM was determined as 106%, the viability at 3 µM came to 101%, the viability at 5 µM was found to be 94% and the viability at 10 µM is 92%. Moreover, in data set [2], the viability at 30 µM was 96% and the viability at 100 µM came out at 92%. Further, the “number of relative cells” value in data set [2] (1 to 100 μM) is listed as ≥ 0.5. Further, in data set [3], the “drug efficacy (residual urine volume, FIG. 1) as compared to the compound 4” value is listed as “remarkable drug efficacy”.
In data set [1], `CC1=C(CCCCCCCCCCCCCCCO)C(C)(C)CCC1=O` [Compound 4, 3-(15-hydroxypentadecyl)-2,4,4-trimethylcyclohex-2-en-1-one, reference compound] registered an AUC(0-inf) of 0.003 µM·h and a Cmax of 2 nM. Also, in data set [2], the viability at 1 µM was 103%, the viability at 3 µM is 92%, the viability at 5 µM stood at 92% and the viability at 10 µM is 101%. In addition, the viability at 30 µM in data set [2] came to 19%.
As for `CC1=C(CCCCCCCCCCCCCCCOCc2ccccc2)C(C)(C)CCC1=O` [Compound 52, 3-(15-(benzyloxy)pentadecyl)-2,4,4-trimethylcyclohex-2-en-1-one], in data set [2], the viability at 1 µM was determined as 105%, the viability at 3 µM worked out at 100%, the viability at 5 µM came to 95% and the viability at 10 µM came to 96%. Moreover, in data set [2], the viability at 30 µM came to 90% and the viability at 100 µM is 96%.

Source of the values: patent publication US20230295068A1, “NOVEL CYCLOALKENONE COMPOUND OR SALT THEREOF” (TAIHO PHARMACEUTICAL CO., LTD., priority 2020, published 2023).
